Results: patent US20260216294A1, “BETA 2-ADRENERGIC RECEPTOR AGONISTS FOR TREATMENT OR PREVENTION OF MUSCLE WASTING” (ATROGI AB, priority 2023, published 2026)

Assays:
L6-myotubes [1] = assay: Glucose uptake in differentiated L6-myotubes (Biological Example 2); type: cell-based; conditions: for Emax at 10 µM: read-out: Biological example 2 (GU)
Description: (§1) Compounds described in publications referenced and incorporated herein were screened in accordance with the procedures outlined in Biological example 2 and Biological example 3.
Differentiated L6-myotubes were serum-starved overnight in medium containing 0.5% fatty-acid free BSA and stimulated with isoprenaline or the test compound, with a final concentration of 1×10^−5 M. After 1 h 40 min the cells were washed with warm glucose free medium or PBS twice and another portion of agonist was added to the glucose free medium. After 20 min the cells were exposed to 50 nM ^3H-2-deoxyglucose for 10 min before washed with ice cold glucose free medium or PBS three times and lysed with 0.2 M NaOH, 400 μL/well, for 1 h at 60° C. The cell lysate was mixed with 4 mL scintillation buffer (Emulsifier Safe, Perkin Elmer) and the radioactivity was detected in a […] (Tri-Carb 4810TR, Perkin Elmer).

L6-myotubes [2] = assay: Measurement of intracellular cAMP levels in differentiated L6-myotubes (Biological Example 3); type: cell-based; conditions: for Emax at 10 µM: 0.25 h
Description: as §1
Differentiated L6-myotubes were serum-starved overnight and stimulated with isoprenaline or the test compound with a final concentration of 1×10^−5 M, for 15 min in stimulation buffer (HBSS supplemented with 1% BSA, 5 mM HEPES and 1 mM IBMX, pH 7.4). The medium was aspirated and 100 μL of 95% EtOH was added to each well of the 24-well plate and cells were kept at −20° C. overnight. The EtOH was allowed to evaporate and 500 μL of lysis buffer (1% BSA, 5 mM HEPES and 0.3% Tween-20, pH 7.4) was added to each well. The plate was kept at −80° C. for 30 min and then at −20° C. until the day of detection when the samples were thawed. Intracellular cAMP levels were detected using an alpha screen cAMP kit (6760635D from Perkin Elmer).

[3] = glucose uptake in differentiated L6-myotubes, compound at 10 μM, activity relative to isoproterenol at 10 μM
[4] = intracellular cAMP in differentiated L6-myotubes, compound at 10 μM, activity relative to isoproterenol at 10 μM
[5] = glucose uptake, compound at 10 μM relative to isoproterenol at 10 μM
[6] = intracellular cAMP, compound at 10 μM relative to isoproterenol at 10 μM

SMILES	Emax at 10 µM (L6-myotubes [1]; [3])	Emax at 10 µM (L6-myotubes [2]; [4])	Emax at 10 µM (L6-myotubes [1]; [5])	Emax at 10 µM (L6-myotubes [2]; [6])	further results
O[C@H](c1cncc(F)c1)C12CCC(CCCc3ccccc3)(CC1)N2 [Compound 532, (R)-(5-fluoro-3-pyridyl){4-(3-phenylpropyl)-7-azabicyclo[[2.2.1]]hept-1-yl}methanol]	50 to 75%	25 to 50%			
CC12CCC([C@@H](O)c3cncc(F)c3)(CC1)N2 [Compound 184, (S)-(5-fluoro-3-pyridyl)(4-methyl-7-azabicyclo[[2.2.1]]hept-1-yl)methanol]			50 to 75%	< 25%	
CO[C@H]1CC[C@H](C[C@@H]2CC[C@H]([C@@H](O)c3ccccc3F)N2)CC1 [Compound 336, (S)-[(2R,5S)-5-{[(1r,4S)-4-methoxycyclohexyl]methyl}-2-pyrrolidinyl] (o-fluorophenyl)methanol]	25 to 50%	< 25%			
Oc1ccc(C(O)CNCCC2CC2)cc1 (centres unmarked) [Compound 24, p-[2-(2-cyclopropylethylamino)-1-hydroxyethyl]phenol]			50 to 75%	< 25%	
O[C@H](c1cccc(F)c1)C12CCC(COc3ccc(Cl)cc3)(CC1)N2 [Compound 441, (R)-{4-[(p-chlorophenoxy)methyl]-7-azabicyclo[[2.2.1]]hept-1-yl}(m-fluorophenyl)methanol]	> 75%	< 25%			
CC1(C)CCC[C@H]([C@H](O)c2ccccc2F)N1 [Compound 177, (R)-[(R)-6,6-dimethyl-2-piperidyl](o-fluorophenyl)methanol]			50 to 75%	< 25%	
CCC[C@H]1CCCC[C@@H]([C@@H](O)c2cncc(F)c2)N1 [Compound 235, (S)-[(2S,7S)-7-propyl-2-azepanyl](5-fluoro-3-pyridyl)methanol]	< 25%	< 25%			
CS(=O)(=O)N[C@H]1CC[C@@H](C[C@@H]2CC[C@H]([C@H](O)c3cccc(F)c3)N2)CC1 [Compound 510, (R)-[(2R,5S)-5-{[(1s,4R)-4-(mesylamino)cyclohexyl]methyl}-2-pyrrolidinyl](m-fluorophenyl)methanol]	> 75%	< 25%			
CC(C)(C[C@H]1CC[C@@H](NS(C)(=O)=O)CC1)NC[C@H](O)c1cccc(F)c1 [Compound 453, (R)-2-{1,1-dimethyl-2-[(1s,4S)-4-(mesylamino)cyclohexyl]ethylamino}-1-(m-fluorophenyl)-1-ethanol]	> 75%	< 25%			
CO[C@H]1CC[C@@H](C(C)(C)NC[C@H](O)c2cccc(F)c2)CC1 [Compound 251, (R)-1-(m-fluorophenyl)-2-{1-methyl-1-[(1s,4S)-4-methoxycyclohexyl]ethylamino}-1-ethanol]	< 25%	< 25%			
CC(C)(C[C@H]1CC[C@@H](O)CC1)NC[C@H](O)c1cncc(F)c1 [Compound 301, (R)-2-{1,1-dimethyl-2-[(1s,4S)-4-hydroxycyclohexyl]ethylamino}-1-(5-fluoro-3-pyridyl)-1-ethanol]	> 75%	< 25%			
CC12CC(C1)[C@H]([C@H](O)c1cncc(F)c1)N2 [Compound 220, (R)-{(R)-1-methyl-2-azabicyclo[[2.1.1]]hex-3-yl}(5-fluoro-3-pyridyl)methanol]	> 75%	< 25%			
CCC[C@H]1CC[C@@H]([C@H](O)c2cccc(F)c2)N1 [Compound 130, (R)-[(2S,5S)-5-propyl-2-pyrrolidinyl](m-fluorophenyl)methanol]			25 to 50%	< 25%	
CCC[C@H](C)NC[C@H](O)c1ccc(F)cc1 [Compound 53, (R)-2-[(S)-1-methylbutylamino]-1-(p-fluorophenyl)-1-ethanol]			50 to 75%	< 25%	
CC(C)(C[C@H]1CC[C@@H](N)CC1)NC[C@H](O)c1cncc(F)c1 [Compound 466]	50 to 75%	< 25%			
CCC12CCC([C@@H](O)c3cccc(F)c3)(CC1)N2 [Compound 182, (S)-(m-fluorophenyl)(4-propyl-7-azabicyclo[[2.2.1]]hept-1-yl)methanol]			< 25%	< 25%	
O=C(N[C@H]1CC[C@@H](CNC[C@H](O)c2cccc(F)c2)CC1)c1ccccc1 [Compound 316]	50 to 75%	< 25%			

SMILES	Emax at 10 µM (L6-myotubes [1]; [3])	Emax at 10 µM (L6-myotubes [2]; [4])	Emax at 10 µM (L6-myotubes [1]; [5])	Emax at 10 µM (L6-myotubes [2]; [6])	further results
CO[C@H]1CC[C@@H](CNC[C@H](O)c2cccc(F)c2)CC1 [Compound 245, (R)-1-(m-fluorophenyl)-2-({[(1s,4S)-4-methoxycyclohexyl]methyl}amino)-1-ethanol]	50 to 75%	< 25%			
CC(C)(CC[C@H]1CC[C@@H](C(=O)O)CC1)NC[C@H](O)c1cncc(F)c1 [Compound 347, (1S,4s)-4-{3-[(R)-2-(5-fluoro-3-pyridyl)-2-hydroxyethylamino]-3-methylbutyl} cyclohexanecarboxylic acid]	> 75%	< 25%			
O[C@@H](CNCCC[C@H]1CC[C@H](OCc2ccccc2)CC1)c1cccc(F)c1 [Compound 278, (R)-1-(m-fluorophenyl)-2-{3-[(1r,4S)-4-(benzyloxy)cyclohexyl]propylamino}-1-ethanol]	25 to 50%	< 25%			
O[C@H](c1cccc(F)c1)C12CCC(Cc3ccc(OC(F)(F)F)cc3)(CC1)N2 [Compound 500, (S)-(m-fluorophenyl){4-[(p-trifluoromethoxyphenyl)methyl]-7-azabicyclo[[2.2.1]]hept-1-yl}methanol]	< 25%	< 25%			
COc1ccc(C[C@H]2CC[C@H]([C@@H](O)c3cccc(F)c3)N2)cc1 [Compound 375, (S)-{(2R,5R)-5-[(p-methoxyphenyl)methyl]-2-pyrrolidinyl}(m-fluorophenyl)methanol]	> 75%	< 25%			
CC12CC(C1)[C@@H]([C@H](O)c1cccc(F)c1)N2 [Compound 188, (R)-{(S)-1-methyl-2-azabicyclo[[2.1.1]]hex-3-yl}(m-fluorophenyl)methanol]			< 25%	< 25%	
COCC12CCC([C@H](O)c3cccc(F)c3)(CC1)N2 [Compound 330, (R)-(m-fluorophenyl){4-(methoxymethyl)-7-azabicyclo[[2.2.1]]hept-1-yl}methanol]	> 75%	< 25%			
CC(C)(C)NCC(O)c1ccncc1O (centres unmarked) [Compound 134, 4-[2-(tert-butylamino)-1-hydroxyethyl]-3-pyridinol]			> 75%	< 25%	
CCCCNCC(O)c1ccc(F)c(N)c1F (centres unmarked) [Compound 43, 1-(3-amino-2,4-difluorophenyl)-2-(butylamino)-1-ethanol]			> 75%	< 25%	
CCC[C@@H]1CC[C@H]([C@@H](O)c2cccc(O)c2)N1 [Compound 127, m-{(S)-[(2R,5R)-5-propyl-2-pyrrolidinyl] hydroxymethyl}phenol]					Biological example 2 (GU) (L6-myotubes [1]; [5]): + (if it is between 50 and 25% it is denoted with +); Biological example 3 (CAMP) (L6-myotubes [2]; [6]): − (if it less than 25% it is denoted with −)
CC(C)(CC[C@H]1CC[C@@H](O)CC1)NC[C@H](O)c1ccccc1F [Compound 320, (R)-2-{1,1-dimethyl-3-[(1s,4R)-4-hydroxycyclohexyl]propylamino}-1-(o-fluorophenyl)-1-ethanol]	> 75%	25 to 50%			
CN(C)S(=O)(=O)[C@H]1CC[C@@H](CC(C)(C)NC[C@H](O)c2cccc(F)c2)CC1 [Compound 470]	> 75%	25 to 50%			
O[C@@H](c1cccc(F)c1)[C@H]1CCC2(CC2)N1 [Compound 171]			25 to 50%	< 25%	
CC(C)(C[C@H]1CC[C@H](NS(C)(=O)=O)CC1)NC[C@H](O)c1cccc(C#N)n1 [Compound 426, 6-[(S)-2-{1,1-dimethyl-2-[(1r,4S)-4-(mesylamino)cyclohexyl]ethylamino}-1-hydroxyethyl]-2-pyridinecarbonitrile]	> 75%	< 25%			
CS(=O)(=O)N[C@H]1CC[C@@H](CNC[C@H](O)c2cncc(F)c2)CC1 [Compound 314, (R)-1-(5-fluoro-3-pyridyl)-2-({[(1s,4S)-4-(mesylamino)cyclohexyl]methyl}amino)-1-ethanol]	50 to 75%	< 25%			
CC1(NC[C@H](O)c2cccc(F)c2)CCC1 [Compound 83, (R)-1-(m-fluorophenyl)-2-(1-methylcyclobutylamino)-1-ethanol]			> 75%	25 to 50%	
CCC[C@H]1CCC[C@H]([C@@H](O)c2cccc(Cl)c2)N1 [Compound 128]			25 to 50%	< 25%	
